What all share (assay type): cell-based
The test system of data set [1] is β-catenin signalling pathway genes in HT29 colon adenocarcinoma cell line. Nature of the data set: QRT-PCR analysis of β-catenin signalling pathway genes in HT29 cells. The conditions noted are these: 20 mM 5-ASA, 96 h. Here is the method: These findings were also confirmed in another colon adenocarcinoma cell line, named HT29, under the same experimental conditions.
FIG. 5. Biological effects determined by treatment with 5-ASA on the HT29 colon adenocarcinoma cell line. The mRNA expression variations of gene belonging to the β-catenin signalling pathway were analyzed in HT29 cells using the QRT-PCR reaction under the experimental conditions described in Results and in FIG. 1.
Total RNA was extracted from cell suspensions and frozen tissues by means of the Qiagen total RNA purification kit as recommended by the manufacturer (Qiagen, Valencia, Calif.). RNA integrity and concentration were verified using the Bio-Analyzer technique (Applied Biosystem, Foster City, Calif.). 100 ng of total RNA were reverse transcribed using the High Capacity cDNA Archive Kit (Applied Biosystems) according to the manufacturer's instructions. QRT-PCR was performed with an ABI PRISM 7900 sequence detection system (Applied Biosystems) to quantify the relative levels of mRNA in the samples. […] Evaluation of QRT-PCR signals was performed using the ΔΔCt relative quantitation method. […] The values obtained were expressed in terms of relative quantity (RQ) of mRNA level variation.

In data set [2] the test system is μ-protocadherin/β-catenin protein complex in CaCo2 cells. The data set is described as follows: Coimmunoprecipitation analysis of μ-protocadherin/β-catenin protein interaction in CaCo2 cells. The settings on record: lysates of CaCo2 cells, 20 mM 5-ASA for 96 h. Here is the method:
The hypothesis arising from our data would directly imply that μ-protocadherin, as other proteins belonging to the cadherin superfamily, is able to bind β-catenin on the plasmatic membrane. To verify this interaction we performed co-immunoprecipitation experiments in which β-catenin was immunoprecipitated from lysates of CaCo2 cells treated with 20 mM 5-ASA for 96 h using a specific antibody and the immunoprecipitate was subsequently analyzed by Western blot carried out with a distinct antibody able to detect μ-protocadherin. […] FIG. 4. Coimmunoprecipitation analysis of μ-protocadherin/β-catenin protein interaction. […] Western blot analysis of μ-protocadherin expression was performed in cell lysates of control untreated and 5-ASA treated CaCo2 cells (Input, left panel), immunoprecipitates obtained by the same cells using normal control IgG (middle panel) and immunoprecipitates obtained by the same cells using an anti-β-catenin antibody (right panel). IP, immunoprecipitation; WB, Western blot; Ab antibody.

Data set [3] relates to β-catenin protein in CaCo2 cells. The data set is described as follows: Immunofluorescence assay of sub-cellular distribution of β-catenin in CaCo2 cells. The settings on record: 20 mM 5-ASA, after 96 h of culture. Here is the method:
Due to the particular regulation mechanisms controlling the β-catenin signalling pathway, levels of β-catenin protein observed in the different subcellular compartments represent reliable indicators of the extent of its activation. Based on this premise we performed an immunofluorescence assay to assess the sub-cellular distribution of β-catenin protein in CaCo2 cells undergoing treatment with 20 mM 5-ASA. […] FIG. 3. Immunofluorescence analysis of β-catenin protein on CaCo2 cells exposed to 5-ASA treatment. Cells were stimulated with 5-ASA as explained in Results and subsequently stained with an anti-β-catenin primary antibody and a FITC conjugated secondary antibody (green fluorescence). Untreated control cells (CONT.) were also analyzed. Nuclei were counterstained with DAPI (blue fluorescence). Merge images, of the two analyzed fluorescence signals, are also shown.

For another data set, the system named is CaCo2 cells. Nature of the data set: Proliferation of CaCo2 cells under 5-ASA treatment (preliminary experiments).
The test system of data set [4] is β-catenin signalling pathway genes in CaCo2 colon adenocarcinoma cells. Nature of the data set: QRT-PCR analysis of genes regulating the β-catenin signalling pathway in CaCo2 cells. The conditions noted are these: 20 mM 5-ASA. Here is the method: (§1) To investigate the molecular mechanisms underlying this effect we performed a microarray analysis, using the Affimetrix methodology, in order to assess the transcriptome changes determined on CaCo2 cells by treatment with 20 mM 5-ASA for 96 h. […] This gene codes for a member of the cadherin superfamily and, based on previous reports by other authors, appeared as a putative inhibitor of the β-catenin signalling pathway, i.e. a cell proliferation pathway mediated by the activity of the β-catenin transcription factor^16,17. The relevance of this finding resides in the observation that the β-catenin signalling pathway is constitutively activated in CRC. […] Up-regulation of mRNA expression resulted to be 12-fold for μ-protocadherin, 16-fold for p21^waf-1, 4 to 6-fold for KLF4 and CEBPα and 2 to 3-fold Axin 1 and ICAT. […] The up-regulation of these genes appeared also more pronounced at the end of stimulation (96 h). mRNA expression of E-cadherin and β-catenin appeared, conversely, unaffected (FIG. 1).
FIG. 1. QRT-PCR analysis of genes belonging to the β-catenin signalling pathway in CaCo2 cells treated with 5-ASA. Cells under the experimental conditions described in Results were analyzed by QRT-PCR to estimate the mRNA expression of genes belonging to the β-catenin signalling pathway, all indicated on y-axis. The effect determined by 5-ASA treatment on the mRNA expression of KLF4 and CEBPα onco-suppressor genes is also shown.
Total RNA was extracted from cell suspensions and frozen tissues by means of the Qiagen total RNA purification kit as recommended by the manufacturer (Qiagen, Valencia, Calif.). RNA integrity and concentration were verified using the Bio-Analyzer technique (Applied Biosystem, Foster City, Calif.). 100 ng of total RNA were reverse transcribed using the High Capacity cDNA Archive Kit (Applied Biosystems) according to the manufacturer's instructions. QRT-PCR was performed with an ABI PRISM 7900 sequence detection system (Applied Biosystems) to quantify the relative levels of mRNA in the samples. Primers and probes for mRNA amplification of μ-protocadherin, E-cadherin, β-catenin, Axin-1, Inhibitor of β-Catenin and TCF-4 (ICAT), p21^waf-1, KLF4, CEBPα, and glyceraldehyde-3-phosphate dehydrogenase (GAPDH) were designed by Applied Biosystems. Each cDNA sample was run in triplicate in 50 μl reaction volume using Taqman Universal PCR Master Mix (Applied Biosystems). Thermal cycling was started with an initial denaturation at 50° C. for 2 min and 95° C. for 10 min, followed by 40 thermal cycles of 15 sec at 95° C. and 1 min at 60° C. Evaluation of QRT-PCR signals was performed using the ΔΔCt relative quantitation method. […] The values obtained were expressed in terms of relative quantity (RQ) of mRNA level variation.

Data set [5] relates to μ-protocadherin protein in CaCo2 cells. The data set is described as follows: Time course Western blot of μ-protocadherin protein expression in CaCo2 cells. The settings on record: 20 mM 5-ASA for up to 96 h, 24 h intervals. Here is the method:
To confirm μ-protocadherin induction we performed a time course Western blot analysis on CaCo2 cells undergoing exposure to 20 mM 5-ASA for up to 96 h. […] FIG. 2. Results of a time course Western blot analysis evaluating the expression of μ-protocadherin protein in CaCo2 cells treated with 5-ASA. This analysis was performed on cytoplasmic extracts of studied cells, at 24 h intervals following treatment with 5-ASA. Analyzed cell samples are indicated on the top. Normalization of the protein amount loaded in each lane was achieved using a pan-actin antibody able to detect either cytoplasmic or nuclear actin.
(In western blotting, separated proteins are transferred to a membrane and probed.)

Data set [6] has as its system onco-suppressor genes in CaCo2 cells. The data set is described as follows: Affimetrix microarray analysis of transcriptome changes in CaCo2 cells. The settings on record: 20 mM 5-ASA for 96 h. Here is the method: as §1
Setting [7] is: 48 and 96 h (more pronounced at 96 h).

Turning to `Nc1ccc(O)c(C(=O)O)c1` [5-ASA, 5 aminosalicylic acid], in data set [1], the “induction of p21^waf-1 mRNA expression” value is 5 fold and the “induction of μ-protocadherin mRNA expression” value amounted to 3 fold. In addition, the “μ-protocadherin bands (93 and 110 kDa) in β-catenin immunoprecipitate” value in data set [2] is listed as “interacting with β-catenin”. Further, the “sub-cellular localization of β-catenin signal” value in data set [3] is on record as “almost exclusively localized in the plasmatic membrane”. Moreover, the “proliferation activity of CaCo2 cells” value in the data set with CaCo2 cells was “inhibits the proliferation activity”. Also, in data set [4] (48 and 96 h), the “mRNA expression of E-cadherin” value is listed as “unaffected” and the “mRNA expression of β-catenin” value is “unaffected”. Also, in data set [4] (setting [7]), the “up-regulation of p21^waf-1 mRNA expression” value worked out at 16 fold and the “up-regulation of μ-protocadherin mRNA expression” value came to 12 fold. For the same compound, in data set [5], the “μ-protocadherin protein expression in cytoplasmic extract (Western blot)” value is on record as “gradually but remarkably induced”. The “expression of onco-suppressor genes (μ-protocadherin, KLF4, CEBPα) by microarray” value in data set [6] is given as “up-regulated expression”.

For the origin of these results see patent US8501442B2, “Determination of 5-ASA efficacy in CRC prevention and/or treatment by gene expression analysis” (Sofar SpA, priority 2009, dated 2013).
